Measured values as given in US20250046404A1, “SYSTEMS AND METHODS RELATING TO A MACHINE LEARNING PREDICTION MODEL FOR PREDICTING MOLECULAR TARGETS OF SMALL MOLECULES” (KBR WYLE SERVICES, LLC, priority 2023, published 2025).

Key:
miR-451 [1] = test: Effect on levels of miR-451; settings: zebrafish, in vivo
Description: (§1) Either mechanism of action may be valid, as both pathways will allow the desired output, which complements miRNA activity.
(§2) Dicer processes miR-144, but at the same time is a target of miR-144 (PMID: 32191872), effectively canceling a potential drug-induced increase in miR-144 output.

miR-144 = test: Effect on levels of miR-144; assay type: in vivo, Zebrafish; settings: erythrocyte specific miR-144
Description: as §1, §2

miR-451 [2] = test: Zebrafish embryo erythrocyte accumulation with PTU, O-dianisidine hemoglobin stain; assay type: in vivo; settings: for hemoglobinized cells / blood accumulation (O-dianisidine staining): 2-day-old embryos, lateral view, tail region, upon drug treatment
Protocol: Zebrafish embryos were incubated with different drug candidates predicted by sChemNET in combination with phenyl-thiourea (PTU), a chemical known to induce anemia due to oxidative stress when miR-451 activity is impaired, but not in wild-type embryos. 48 hours after fertilization, embryos display robust blood circulation. At this stage, the accumulation of mature erythrocytes can be easily assessed in transparent embryos using O-dianisidine, a hemoglobin-specific stain. Drugs impairing miR-451 activity induce anemia, while miR-451 boosting drugs will increase erythrocyte production (blood circulation).
Ventral images of 2-day-old embryos stained with O-dianisidine reveal hemoglobinized cells (brown staining).) for wild-type embryos and those treated with docetaxel, β-elemene and α-calcidol. Blood accumulated in the ventral region (ducts of Cuvier).

| SMILES | levels of miR-451 (miR-451 [1]) | levels of miR-144 (cluster partner of miR-451) (miR-144) | hemoglobinized cells / blood accumulation (O-dianisidine staining) (miR-451 [2]) | blood production (miR-451 [2]; zebrafish, in vivo) |
| --- | --- | --- | --- | --- |
| C=C1/C(=C\C=C2/CCC[C@]3(C)[C@@H]([C@H](C)CCCC(C)C)CC[C@@H]23)C[C@@H](O)C[C@@H]1O [α-Calcidol] | does not directly affect the levels | does not directly affect the levels | accumulation of the excess of blood in the tail region | boosts blood production |
| C=C[C@]1(C)CC[C@@H](C(=C)C)C[C@H]1C(=C)C [β-elemene] | – | – | accumulation of the excess of blood in the tail region | – |
| CC(=O)O[C@@]12CO[C@@H]1C[C@H](O)[C@@]1(C)C(=O)[C@H](O)C3=C(C)[C@@H](OC(=O)[C@H](O)[C@@H](NC(=O)OC(C)(C)C)c4ccccc4)C[C@@](O)([C@@H](OC(=O)c4ccccc4)[C@H]21)C3(C)C [docetaxel] | – | – | accumulation of the excess of blood in the tail region | – |
